This passage reports EC50 and inhibition results from ChEMBL document CHEMBL3046385, “Synthesis and bioactivity of novel 3-(1-hydroxyethylidene)-5-substituted-pyrrolidine-2,4-dione derivatives” (Chin Chem Lett, 2012).

Broadly, the EC50 is the concentration that produces a half-maximal response. What is called inhibition is the share of the control response that was lost under treatment.

≈ marks a conversion by molar mass, not a printed value.

For assay [1], the system named is Echinochloa crus-galli. Nature of the assay: Herbicidal activity against Echinochloa crus-galli (barnyard grass) assessed as stalk inhibition. Type of assay: functional, organism-based.
For assay [2], the system named is Brassica rapa subsp. oleifera. Nature of the assay: Herbicidal activity against Brassica rapa subsp. oleifera assessed as root inhibition at 100 mg/l. It counts as functional.
For assay [3], the system named is Echinochloa crus-galli. Nature of the assay: Herbicidal activity against Echinochloa crus-galli (barnyard grass) assessed as root inhibition at 100 mg/l. It counts as functional.
The subject of assay [4] is Echinochloa crus-galli. Briefly: Herbicidal activity against Echinochloa crus-galli (barnyard grass) assessed as stalk inhibition at 100 mg/l. It counts as functional.
The subject of assay [5] is Brassica rapa subsp. oleifera. Nature of the assay: Herbicidal activity against Brassica rapa subsp. oleifera assessed as root inhibition. It counts as functional, organism-based.

Regarding `CCCCCCC1NC(=O)/C(=C(/C)O)C1=O` (centres undefined), the EC50 in the assay with Echinochloa crus-galli [1] amounted to 72.7 µg/mL (≈ 323 µM). Moreover, the inhibition at 100 µg/mL in assay [2] is 43.1%; with Echinochloa crus-galli [3], 47.8%; with Echinochloa crus-galli [4], 66.9%.
Turning to `COc1ccc(CC2NC(=O)/C(=C(/C)O)C2=O)cc1` (centres undefined), the inhibition at 100 µg/mL turned out to be 62.9% in assay [2], 32.8% with Echinochloa crus-galli [3] and 41.2% with Echinochloa crus-galli [4].
The corresponding values for `C/C(O)=C1/C(=O)NC(Cc2ccc(Cl)cc2Cl)C1=O` (centres undefined) are 59.3%, 31.6% and 19.1%.
For the compound `COc1ccc(C(=O)CC2NC(=O)/C(=C(/C)O)C2=O)cc1` (centres undefined), the EC50 with Echinochloa crus-galli [1] turned out to be 94.4 µg/mL (≈ 326 µM). Also, the inhibition at 100 µg/mL in assay [2] was determined as 45.9%; with Echinochloa crus-galli [3], 61.5%; in the assay with Echinochloa crus-galli [4], 62.6%.
On to `C/C(O)=C1/C(=O)NC(CC(=O)c2ccccc2)C1=O` (centres undefined), for which the inhibition at 100 µg/mL was found to be 66.9% in assay [2], 47.9% in the assay on Echinochloa crus-galli [3] and 36.4% with Echinochloa crus-galli [4].
In the case of `C/C(O)=C1/C(=O)NC(C/C=C/c2ccccc2)C1=O` (centres undefined), the EC50 in assay [5] was 39.2 µg/mL (≈ 152 µM). Also, the figures for the inhibition at 100 µg/mL (in assay [2]; with Echinochloa crus-galli [3]; in the assay on Echinochloa crus-galli [4]) were 90.4%, 54% and 42.5%, respectively.
On to `CCCCC1NC(=O)/C(=C(/C)O)C1=O` (centres undefined), for which the inhibition at 100 µg/mL stood at 46.3% in assay [2], 38.5% with Echinochloa crus-galli [3] and 32.3% in the assay on Echinochloa crus-galli [4].
`C/C(O)=C1/C(=O)NC(Cc2ccc(Cl)cc2)C1=O` (centres undefined): the EC50 in assay [5] was determined as 25.5 µg/mL (≈ 96 µM). The inhibition at 100 µg/mL in assay [2] came out at 89.7%; in the assay on Echinochloa crus-galli [3] it was 49.6%; in the assay with Echinochloa crus-galli [4] it was 37.8%.
In the case of `C/C(O)=C1/C(=O)NC(Cc2ccccc2Cl)C1=O` (centres undefined), the inhibition at 100 µg/mL in assay [2] stood at 41.8%; with Echinochloa crus-galli [3], 37.3%; in the assay with Echinochloa crus-galli [4], 35.7%.
The matching figures for `C/C(O)=C1/C(=O)NC(Cc2ccc([N+](=O)[O-])cc2)C1=O` (centres undefined): 45.7%, 64.3% and 41.6%.
